Reference: PMC12154549, “Structure-based design of an aromatic helical foldamer–protein interface” (Chemical Science, 2025)
Read-outs that look alike come from different tables or passages of the source.

What was measured:
HCAII [1] = target: T1, HCAII (Homo sapiens, UniProt P00918); test: Fluorescence competition assay: HCAII titrated into foldamer or ligand plus probe 23; settings: [competing species] = [23] = 50 nM; 50 mM HEPES pH 7.2; 1:1 binding isotherm, 380-600 nm; repeatable within ±15%
T1 construct: made in house
Text: We turned to a recently published assay that exploits the quenching of the fluorescence of nanomolar ligand 23 upon binding to HCAII (Fig. 8a).[32] The low KD value of 23 makes it suitable to perform competition (displacement) assays with compounds binding in the same concentration range. However, some optimization of the assay was required to perform experiments with foldamer-containing ligands because the foldamers absorb both at the excitation (373 nm) and emission (400–450 nm) wavelengths of 23. Performing classical direct displacement titrations where a foldamer is added to a solution containing 23 and HCAII would be complicated by variable inner filter effects. […] For fluorescence measurements: 50 mM HEPES (4-(2-hydroxyethyl)-1-piperazineethanesulfonic acid) at pH 7.2. […] It appears that the fluorescence drops upon adding HCAII, i.e. that ligand 23 binds to HCAII, in presence of the foldamer faster than predicted by the binding model. A better fit can be artificially obtained by inputting HCAII concentrations 20% larger than those measured or foldamer concentrations 20% lower than those measured in the curve fitting program. […]
4.2 Fluorescence binding assay […]
2. To the solution of 23 (50 nM) in HEPES buffer (50 mM, pH 7.2) in the fluorescence cuvette (2 mL), incremental volumes of a stock solution of HCAII (11 µM) in HEPES buffer were added. […]

HCAII [2] = target: T1, HCAII; design: method as in PMID 30395443; settings: HCAII immobilized; 2:98 DMSO/PBS pH 7.4, 25 °C; ref 8a; read-out: KD by SPR; cited from earlier work
HCAII [3] = target: T1, HCAII; test: Direct fluorescence titration of probe 23 with HCAII; type: binding; settings: 23 50 nM, 50 mM HEPES pH 7.2, RT, 1:1 model; read-out: KD of 23·HCAII complex
Description: 4.2 Fluorescence binding assay
This fluorescence assay was adapted from the paper of Anzenbacher.18 All fluorescence titrations were done in aqueous 50 mM HEPES buffer (pH = 7.2) at room temperature , without degassing of the samples and using a qua rtz fluorescence cuvette with 1 cm path length on Varian Cary Eclipse Spectrophotometer 05813. The titration assays were carried out in two parts: 1) sensor - protein titration (Figure S21); 2) sensor-foldamer competition assay (Figure S24). Several experiments were repeated and validated a reproducibility within 15% error.
Figure S21. Schematic procedure of the titration experiment between indicator 23 and HCAII (adapted from literature18).
4.2.1 KD measurement of the 23•HCAII complex
1. […]
2. To the solution of 23 (50 nM) in HEPES buffer (50 mM, pH 7.2) in the fluorescence cuvette (2 mL), incremental volumes of a stock solution of HCAII (11 µM) in HEPES buffer were added.
After each addition and gentle agitation, the resulting mixture was incubated for 5 min at RT. The intensity of fluorescence (IF) was then recorded from 380 nm to 600 nm (λex = 373 nm).   […]
software.19 For curve fitting, the binding model was set to 1:1. The spectra of all emitting species were recorded from 380 nm to 600 nm (λex = 373 nm) in separate experiments and set as “unknown spectrum”. The KD value was determined considering all the wavelengths recorded. […]

SMILES	Kd (HCAII [1])	Kd (HCAII [2])	Kd (HCAII [3])
NCCCCOc1cccc(CNC(=O)c2ccc(S(N)(=O)=O)cc2)c1 [ligand 22]	10 nM	5 nM	
COc1ccc2cc(C(=O)Nc3nnc(S(N)(=O)=O)s3)c(=O)oc2c1 [probe 23]			1.69 nM
